Test system: 282377-053-R-J1-PDC complex spheroids, viability
Experiment: Anticancer human tumor 282377-053-R-J1-PDC patient-derived colon adenocarcinoma cell line growth inhibition [GQUAD]
Settings: for IC50: curve of first compound; for viability, T/C: stronger effect = lower value
Text: DNA G-quadruplex Stabilizer Agents in Combinations in Complex Spheroids
A high-throughput screen of multi-cell type tumor spheroids was designed to identify active combinations of DNA G-quadruplex stabilizer agents and targeted small molecules. Complex spheroids include a stromal component modeled by human endothelial cells (HUVEC) and fibroblasts modeled by human mesenchymal stem cells (MSCs). The concentration ranges selected for each drug and investigational agent were based upon clinically achievable concentrations if the clinical Cmax of the agent was known.
Compounds. The drugs and investigational agents: pidnarulex (CX-5461; NSC782164), APTO-253 (NSC789042), BRACO-19 (NSC847499), peposertib (NSC802822), ceralasertib (NSC780249), elimusertib (NSC800525), camonsertib (NSC841442), AZD-1390 (NSC803789), olaparib (NSC753686), talazoparib (NSC767125), ART-558 (NSC835418), sotorasib (NSC818433), MRTX-1133 (NSC836407), SN-38 (NSC673596), topotecan (NSC609699), etoposide (NSC141540), doxorubicin (NSC123127), gemcitabine (NSC613327), 5-fluorouracil (NSC19893), paclitaxel (NSC125973), vemurafenib (NSC761431), panobinostat (NSC761190), R-306465 (JNJ-16241199; NSC773264), adavosertib (NSC754352), TP-3654 (NSC805149), carboplatin (NSC241240), KSQ-4279 (NSC840948), and staurosporine (NSC755774) were obtained from the National Cancer Institute (NCI) Developmental Therapeutics Program Chemical Repository (34). The FDA-approved anticancer drug set is available from the NCI Developmental Therapeutics Program. […] The stock solutions were prepared in dimethyl sulfoxide (DMSO, Sigma-Aldrich, St. Louis, MO, cat. D2650) at 800-fold the tested concentration and stored at -70 degrees C prior to their use. All drugs and investigational agents were tested over a range starting from a high concentration at or near the clinical Cmax and decreasing in half-log increments. If the clinical Cmax for an agent had not been determined, the highest concentration tested was 10 microM.
2.3 Cell Culture. All cells were maintained in an incubator at 37 degrees C and 5% CO2 with 95% humidity. The PDC lines were cultured according to standard operating procedures established by the NCI PDMR. All PDCs were thawed and cultured in Matrigel-coated flasks prepared with a working solution of 1X Ham's F-12 nutrient mix, without supplementation (Invitrogen, cat. 11765054), 100 U/mL penicillin-streptomycin (Invitrogen, cat. 15140122), and 2.5% Matrigel (Corning Inc., cat. 354248) for the first three passages. The 857933-349-R-J2-PDC line was cultured in 6C/Colon 1B media, which includes advanced DMEM/F-12 (Thermo Fisher Scientific, cat. 12634028), 10 mM HEPES (Thermo Fisher Scientific, cat. 15630080), 1X GlutaMAX supplement (Thermo Fisher Scientific, cat. 35050061), 0.1 mg/mL primocin (InvivoGen, cat. ant-pm-2), 10% defined fetal bovine serum, heat inactivated (HyClone Laboratories Inc., cat. SH30070.03HI), 50% L-WRN conditioned media (ATCC, cat. CRL-3276), 1.25 mM N-Acetyl-L-cysteine (Sigma-Aldrich, cat. A9165), 10 mM nicotinamide (Sigma-Aldrich, cat. N0636), 1X B-27 supplement (Thermo Fisher Scientific, cat. 17504044), 1X N-2 supplement (Thermo Fisher Scientific, cat. 17502048), 10 microM Y-27632 dihydrochloride (Tocris Bioscience, cat. 1254), and 50 ng/mL human EGF recombinant protein (Thermo Fisher Scientific, cat. PHG0311). The 485176-168-R4-J1-PDC line was cultured in Panc media, which includes all 6C/Colon 1B media components plus 100 ng/mL human FGF-10 (Thermo Fisher Scientific, cat. 100-26), 500 nM SB-431542 (Selleckchem, cat. S1067), and gastrin (Tocris, cat. 3006).
[…]

[1] = second compound 0.0316 µM, first compound 0.0316 µM
[2] = second compound 0.0316 µM, first compound 0.1 µM
[3] = second compound 0.0316 µM, first compound 0.316 µM
[4] = second compound 0.0316 µM, first compound 1 µM
[5] = second compound 0.0316 µM, first compound 3.16 µM
[6] = second compound 0.0316 µM, first compound 10 µM
[7] = second compound 0.1 µM, first compound 0.0316 µM
[8] = second compound 0.1 µM, first compound 0.1 µM
[9] = second compound 0.1 µM, first compound 0.316 µM
[10] = second compound 0.1 µM, first compound 1 µM
[11] = second compound 0.1 µM, first compound 3.16 µM
[12] = second compound 0.1 µM, first compound 10 µM
[13] = second compound 0.316 µM, first compound 0.0316 µM
[14] = second compound 0.316 µM, first compound 0.1 µM
[15] = second compound 0.316 µM, first compound 0.316 µM
[16] = second compound 0.316 µM, first compound 1 µM
[17] = second compound 0.316 µM, first compound 3.16 µM
[18] = second compound 0.316 µM, first compound 10 µM
[19] = second compound 1 µM, first compound 0.0316 µM
[20] = second compound 1 µM, first compound 0.1 µM
[21] = second compound 1 µM, first compound 0.316 µM
[22] = second compound 1 µM, first compound 1 µM
[23] = second compound 1 µM, first compound 3.16 µM
[24] = second compound 1 µM, first compound 10 µM
[25] = second compound 3.16 µM, first compound 0.0316 µM
[26] = second compound 3.16 µM, first compound 0.1 µM
[27] = second compound 3.16 µM, first compound 0.316 µM
[28] = second compound 3.16 µM, first compound 1 µM
[29] = second compound 3.16 µM, first compound 3.16 µM
[30] = second compound 3.16 µM, first compound 10 µM
[31] = second compound 10 µM, first compound 0.0316 µM
[32] = second compound 10 µM, first compound 0.1 µM
[33] = second compound 10 µM, first compound 0.316 µM
[34] = second compound 10 µM, first compound 1 µM
[35] = second compound 10 µM, first compound 3.16 µM
[36] = second compound 10 µM, first compound 10 µM
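Further: spheroids exposed to compounds for 7 days before readout.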
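Wherever viability, T/C is given: percent of vehicle DMSO control viability with 100% = untreated-like growth.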

COc1cccc2c1C(=O)c1c(O)c3c(c(O)c1C2=O)CC(O)(C(=O)CO)CC3OC1CC(N)C(O)C(C)O1 (stereo unspecified) + Cc1[nH]c2ccc(F)cc2c1-c1nc2c3cccnc3c3ncccc3c2[nH]1
IC50 (second compound 0.0316 µM): 1.35 µM | IC50 (second compound 0.1 µM): 1.32 µM | IC50 (second compound 0.316 µM): 1.08 µM | IC50 (second compound 1 µM): 0.991 µM | IC50 (second compound 3.16 µM): 0.222 µM | IC50 (second compound 10 µM): < 0.0316 µM | viability, T/C [1]: 108% | viability, T/C [2]: 99.2% | viability, T/C [3]: 86.4% | viability, T/C [4]: 64.1% | viability, T/C [5]: 18.5% | viability, T/C [6]: 1.16% | viability, T/C [7]: 94.4% | viability, T/C [8]: 114% | viability, T/C [9]: 81.3% | viability, T/C [10]: 64% | viability, T/C [11]: 16.8% | viability, T/C [12]: 1.17% | viability, T/C [13]: 98.1% | viability, T/C [14]: 129% | viability, T/C [15]: 83.4% | viability, T/C [16]: 54% | viability, T/C [17]: 16.8% | viability, T/C [18]: 0.84% | viability, T/C [19]: 106% | viability, T/C [20]: 116% | viability, T/C [21]: 85.3% | viability, T/C [22]: 47.3% | viability, T/C [23]: 22% | viability, T/C [24]: 0.99% | viability, T/C [25]: 78% | viability, T/C [26]: 74.3% | viability, T/C [27]: 32% | viability, T/C [28]: 29.8% | viability, T/C [29]: 9.5% | viability, T/C [30]: 0.94% | viability, T/C [31]: 36.5% | viability, T/C [32]: 47.2% | viability, T/C [33]: 23.8% | viability, T/C [34]: 18.4% | viability, T/C [35]: 7.13% | viability, T/C [36]: 0.99%

Nc1ccn(C2OC(CO)C(O)C2(F)F)c(=O)n1 (stereo unspecified) + Cc1[nH]c2ccc(F)cc2c1-c1nc2c3cccnc3c3ncccc3c2[nH]1
IC50 (second compound 0.0316 µM): 0.211 µM | IC50 (second compound 0.1 µM): 0.222 µM | IC50 (second compound 0.316 µM): 0.216 µM | IC50 (second compound 1 µM): 0.228 µM | IC50 (second compound 3.16 µM): 0.081 µM | IC50 (second compound 10 µM): < 0.0316 µM | viability, T/C [1]: 119% | viability, T/C [2]: 74.1% | viability, T/C [3]: 35.8% | viability, T/C [4]: 30.9% | viability, T/C [5]: 29.4% | viability, T/C [6]: 21.1% | viability, T/C [7]: 106% | viability, T/C [8]: 81.1% | viability, T/C [9]: 35.8% | viability, T/C [10]: 29.5% | viability, T/C [11]: 31.8% | viability, T/C [12]: 18.9% | viability, T/C [13]: 97% | viability, T/C [14]: 86.3% | viability, T/C [15]: 32% | viability, T/C [16]: 28.4% | viability, T/C [17]: 26.7% | viability, T/C [18]: 20.5% | viability, T/C [19]: 105% | viability, T/C [20]: 74.4% | viability, T/C [21]: 37.4% | viability, T/C [22]: 30.1% | viability, T/C [23]: 23% | viability, T/C [24]: 16% | viability, T/C [25]: 74.8% | viability, T/C [26]: 44.5% | viability, T/C [27]: 18.8% | viability, T/C [28]: 14.9% | viability, T/C [29]: 17.6% | viability, T/C [30]: 9.41% | viability, T/C [31]: 39.2% | viability, T/C [32]: 28.9% | viability, T/C [33]: 16.2% | viability, T/C [34]: 10.3% | viability, T/C [35]: 10.9% | viability, T/C [36]: 8.65%

CC1COCCN1c1cc(-c2ccnn2C)c2ccnc(-c3ccn[nH]3)c2n1 (stereo unspecified) + Cc1cnc(CNC(=O)c2c(=O)c3ccc(N4CCCN(C)CC4)nc3n3c2sc2ccccc23)cn1
IC50 (second compound 0.0316 µM): 0.0974 µM | IC50 (second compound 0.1 µM): 0.0769 µM | IC50 (second compound 0.316 µM): < 0.0316 µM | IC50 (second compound 1 µM): < 0.0316 µM | IC50 (second compound 3.16 µM): < 0.0316 µM | IC50 (second compound 10 µM): < 0.0316 µM | viability, T/C [1]: 97% | viability, T/C [2]: 46.1% | viability, T/C [3]: 36% | viability, T/C [4]: 27.8% | viability, T/C [5]: 24.1% | viability, T/C [6]: 21.2% | viability, T/C [7]: 65.8% | viability, T/C [8]: 43.5% | viability, T/C [9]: 34.4% | viability, T/C [10]: 25.5% | viability, T/C [11]: 23.7% | viability, T/C [12]: 16.2% | viability, T/C [13]: 41.9% | viability, T/C [14]: 40.9% | viability, T/C [15]: 36.1% | viability, T/C [16]: 26.2% | viability, T/C [17]: 21.5% | viability, T/C [18]: 18.4% | viability, T/C [19]: 40.4% | viability, T/C [20]: 32% | viability, T/C [21]: 26.8% | viability, T/C [22]: 26.2% | viability, T/C [23]: 23.5% | viability, T/C [24]: 16.3% | viability, T/C [25]: 35.4% | viability, T/C [26]: 32.8% | viability, T/C [27]: 25.4% | viability, T/C [28]: 22.8% | viability, T/C [29]: 21.1% | viability, T/C [30]: 15.8% | viability, T/C [31]: 26.9% | viability, T/C [32]: 22.5% | viability, T/C [33]: 27.1% | viability, T/C [34]: 23% | viability, T/C [35]: 21.5% | viability, T/C [36]: 15.6%
